# Data: patent publication US7652025B2 (priority 2001, dated 2010)
# Counter-ions that a name gives are not always drawn.
# Tests used:
# [1] = system: Lipopolysaccharide (LPS)-induced lethal sepsis; design: species or system ICR mice; settings: mouse, in vivo
# [2] = system: experimental sepsis models; settings: reported in literature; cited from earlier work
compound,measurement,setting,value
"CN(C(=O)NCc1cccc(C(F)(F)F)c1)[C@@H]1CC[C@@]2(O)[C@H]3Cc4ccc(O)c5c4[C@@]2(CCN3CC2CC2)[C@H]1O5 [Compound 3, 17-cyclopropylmethyl-3,14β-dihydroxy-4,5α-epoxy-6β-(N-methyl-N′-3-trifluoromethylbenzylureido)morphinan tartaric acid salt]",survival rate at 31 hours after administration of LPS,[1],70.0%
(D)Phe-(D)Phe-(D)Nle-(D)Arg-NH2,survival rate at 24 hours after administration of LPS,[1],66.7%
C=CCN1CC[C@]23c4c5ccc(O)c4O[C@H]2C(=O)CC[C@@]3(O)[C@H]1C5 [naloxone],fever of experimental sepsis models,[2],suppresses fever
CN1CC[C@]23c4c5ccc(O)c4O[C@H]2[C@@H](O)C=C[C@H]3[C@H]1C5 [morphine],survival rate of experimental sepsis models,[2],decrease survival rate
"CN(C(=O)/C=C/c1ccoc1)[C@@H]1CC[C@@]2(O)[C@H]3Cc4ccc(O)c5c4[C@@]2(CCN3CC2CC2)[C@H]1O5.Cl [Compound 1, (−)-17-(cyclopropylmethyl)-3,14β-dihydroxy-4,5α-epoxy-6 [N-methyl-trans-3-(3-furyl)acrylamide]morphinan hydrochloric acid salt]",survival rate after 48 hours,[1],40%
same,survival rate at 24 hours after administration of LPS,[1],80%
same,survival rate of sepsis model animals (FIG. 1),[1],increases the survival rate
